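Growth conditions: 96-well plates. Treatment: test compound, 48 hours, 5 concentrations. Analysis: linear interpolation between bracketing concentrations; unreached endpoints set to highest concentration. TGI denotes the concentration required for complete inhibition of growth.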
Tests used:
Test in all cases: growth of human tumour cells (NCI), 48 h
[1] = tested on: NCI-H23 lung
[2] = tested on: SW-620 colon
[3] = tested on: K-562 leukemia
[4] = tested on: MALME-3M melanoma
[5] = tested on: TK-10 renal
[6] = tested on: DU-145 prostate
[7] = tested on: UO-31 renal
[8] = tested on: HOP-62 NSCLC
[9] = tested on: IGROV1 ovarian
[10] = tested on: SR leukemia

SMILES	TGI [1]	TGI [2]	TGI [3]	TGI [4]	TGI [5]	TGI [6]	TGI [7]	TGI [8]	TGI [9]	TGI [10]
O=c1c2ncn(C3CCCCO3)c2n(-c2ccccc2)c(=S)n1-c1ccccc1 (stereo not drawn)	64.3 µM	> 100 µM	> 100 µM	> 100 µM	83 µM	> 100 µM	> 71.4 µM	29.9 µM	69.2 µM	> 100 µM
COc1ccc(-c2cc(C3CC3)nc(SCC(=O)O)c2C#N)cc1	> 100 µM	> 100 µM	> 100 µM	–	> 100 µM	> 100 µM	11.1 µM	> 100 µM	> 100 µM	> 100 µM
CCCN=C1Nc2ccccc2[C@@H]2N(C)c3ccccc3C(C)C[C@]12C (stereo partly drawn)	37.3 µM	36 µM	> 100 µM	32.5 µM	34.2 µM	> 100 µM	98.9 µM	32.1 µM	43.5 µM	–
Cc1ccc(S(=O)(=O)Nc2nc3ccccc3c(=O)n2C2CCCCC2)cc1	> 100 µM	> 100 µM	> 100 µM	–	> 100 µM	> 100 µM	> 100 µM	> 100 µM	> 100 µM	> 100 µM
CN(C)c1ccc(/C=N/n2c(-c3ccccc3)nc3ccccc3c2=O)cc1	> 100 µM	> 100 µM	–	> 100 µM	> 100 µM	> 100 µM	–	> 100 µM	> 100 µM	83.6 µM
C\C=C/C=C/C=C/C(=O)O	> 100 µM	> 100 µM	> 100 µM	> 100 µM	–	–	> 100 µM	> 100 µM	> 100 µM	–
NNC(=O)Cc1cccnc1	> 100 µM	> 100 µM	> 100 µM	> 100 µM	> 100 µM	> 100 µM	> 100 µM	> 100 µM	> 100 µM	–
NC(CCl)=NC1CN2CCC1CC2 (stereo not drawn)	> 100 µM	> 100 µM	> 100 µM	> 100 µM	> 100 µM	> 100 µM	–	> 100 µM	> 100 µM	> 100 µM
O=C1C(=Cc2ccco2)C(=O)C2CCCCC12 (stereo not drawn)	> 100 µM	> 100 µM	73.2 µM	> 100 µM	> 100 µM	> 100 µM	–	> 100 µM	> 100 µM	> 100 µM
O=C1CSC(c2cccc(Cl)c2)N1c1c(O)c(Cl)cc(Br)c1Cl (stereo not drawn)	> 100 µM	32.7 µM	> 100 µM	> 100 µM	> 100 µM	> 100 µM	28.9 µM	> 100 µM	–	70.6 µM
CCOC(O)C(F)(F)F (stereo not drawn)	> 100 µM	> 100 µM	> 100 µM	–	> 100 µM	> 100 µM	> 100 µM	–	–	> 100 µM
Fc1ccc(C2NC(=S)NC3=C2CCOc2c3ccc3ccccc23)cc1 (stereo not drawn)	> 100 µM	> 100 µM	> 100 µM	> 100 µM	> 100 µM	> 100 µM	> 100 µM	> 100 µM	> 100 µM	–
N#CN=C1c2ccccc2C(=NC#N)c2cc(CO)ccc21	> 100 µM	> 100 µM	80.7 µM	–	> 100 µM	69 µM	> 100 µM	> 100 µM	90.7 µM	43 µM
CCn1nc(-c2ccccc2)c2c1N(C)c1ccccc1-n1c(-c3ccccc3)nnc1-2	28.2 µM	29.6 µM	> 100 µM	–	31.1 µM	29.7 µM	40.5 µM	32.2 µM	40.3 µM	> 100 µM
OCc1c2c(cc3c1CC1(C3)Cc3cc4c(c(CO)c3C1)CCC4)CCC2	29.8 µM	–	21.9 µM	30 µM	36.2 µM	–	3.22 µM	29.6 µM	30.2 µM	–
[N-]=[N+]=C(C(=O)OCC#CCOC(=O)C(=[N+]=[N-])S(=O)(=O)c1ccccc1)S(=O)(=O)c1ccccc1	> 10 µM	> 10 µM	> 10 µM	> 10 µM	> 10 µM	> 10 µM	0.519 µM	> 10 µM	> 10 µM	–
CC1(C)C2CCC1(C)C(N/C(=C(/C(Cl)=C(Cl)Cl)[N+](=O)[O-])n1nnc3ccccc31)C2 (stereo not drawn)	52.2 µM	> 100 µM	–	39.4 µM	–	–	51 µM	67 µM	–	–
COc1ccc(C[C@H]2NC(=O)/C=C/C[C@@H]([C@H](C)[C@H]3O[C@@H]3c3ccccc3)OC(=O)[C@H](CC(C)C)OC(=O)[C@H](C)CNC2=O)cc1	> 7.34e-05 µM	> 0.0001 µM	> 8.13e-05 µM	> 0.0001 µM	> 0.0001 µM	> 8.97e-05 µM	> 0.0001 µM	> 7.45e-05 µM	> 0.0001 µM	–
COc1ccccc1C1=C2C(=O)N(C)C(c3ccccc3OC)=C2C(=O)N1C	> 100 µM	> 100 µM	> 100 µM	> 100 µM	> 100 µM	> 100 µM	> 100 µM	43.9 µM	> 100 µM	–
COc1cc2c(cc1OC)C1=Cc3ccc(OC)c(OC)c3C(C#N)N1CC2 (stereo not drawn)	> 100 µM	> 100 µM	–	82.9 µM	> 100 µM	> 100 µM	> 100 µM	> 100 µM	–	–
CC(C)=NNc1cnnc2ccc([N+](=O)[O-])cc12	> 100 µM	> 100 µM	–	> 100 µM	–	> 100 µM	> 100 µM	–	> 100 µM	> 100 µM
C/C=C1\CN2CCC34c5ccccc5N(C)C35OCC4(C(=O)OC)C1CC25 (stereo not drawn)	> 100 µM	> 100 µM	> 100 µM	–	> 100 µM	> 100 µM	> 100 µM	> 100 µM	> 100 µM	> 100 µM
CN1[C@@H]2CCCC[C@H]2N(C)P1(=O)C(O)/C=C/c1ccccc1 (stereo partly drawn)	> 100 µM	> 100 µM	> 100 µM	> 100 µM	> 100 µM	> 100 µM	> 100 µM	> 100 µM	> 100 µM	–
O=C(Nc1ccccc1)c1cc(S(=O)(=O)Nc2n[nH]c(=O)[nH]2)c(SSc2cc(Cl)c(C(=O)Nc3ccccc3)cc2S(=O)(=O)Nc2n[nH]c(=O)[nH]2)cc1Cl	> 100 µM	> 100 µM	> 100 µM	> 100 µM	> 100 µM	–	> 100 µM	> 100 µM	> 100 µM	> 100 µM

SMILES	TGI [1]	TGI [2]	TGI [3]	TGI [4]	TGI [5]	TGI [6]	TGI [7]	TGI [8]	TGI [9]	TGI [10]
Cc1ccc(S(=O)(=O)N(CC(O)c2ccccc2)c2ccccc2F)cc1 (stereo not drawn)	36.9 µM	39.9 µM	44.5 µM	34.1 µM	45.8 µM	32.2 µM	29.8 µM	33.8 µM	41.2 µM	–
C/C=C1/CN2[C@@H](C3=C[C@@H]4[C@@H]5N(C3=O)c3ccccc3[C@@]53CCN5C/C(=C/C)[C@@H]4C[C@H]53)C[C@@]34c5ccccc5N5C(=O)CC=C([C@H]1C[C@H]23)[C@H]54	14.3 µM	10.4 µM	50 µM	12.5 µM	15 µM	22.1 µM	8.34 µM	17.5 µM	–	–
O=C1c2n[nH]nc2C(=O)c2n[nH]nc21	> 100 µM	> 100 µM	> 100 µM	–	> 100 µM	> 100 µM	> 100 µM	> 100 µM	> 100 µM	> 100 µM
CSc1nc2c(c(=O)n1C)N=C(c1ccc(Cl)cc1)CC(c1ccccc1)N2 (stereo not drawn)	62 µM	> 100 µM	53.2 µM	36.4 µM	–	73 µM	> 100 µM	71.4 µM	55.4 µM	> 100 µM
O=C1c2cc([N+](=O)[O-])cnc2S(=O)(=O)N1c1ccc(Br)cc1	> 100 µM	> 100 µM	–	> 100 µM	> 100 µM	> 100 µM	> 100 µM	> 100 µM	> 100 µM	> 100 µM
CC1(C)CC(=O)C2=C(C1)NC(SCC(=O)O)=C(C#N)C2c1ccc(Br)cc1 (stereo not drawn)	> 100 µM	> 100 µM	–	–	> 100 µM	> 100 µM	15.6 µM	> 100 µM	> 100 µM	–
COc1ccc(C2c3cc4c(cc3OC(NNC(N)=O)C2C)OCO4)cc1 (stereo not drawn)	> 86.1 µM	> 100 µM	> 34.9 µM	> 100 µM	> 100 µM	> 100 µM	> 90.5 µM	> 54.4 µM	> 100 µM	–
Nc1ccccc1/C=C\c1ccccc1	> 100 µM	> 100 µM	> 100 µM	> 100 µM	> 100 µM	> 100 µM	> 100 µM	> 100 µM	> 100 µM	–
CC(=O)c1cc2c(s1)C(=O)c1scc(C(C)=O)c1C2=O	1.72 µM	–	3.54 µM	1.9 µM	9.9 µM	2.86 µM	1.31 µM	1.97 µM	1.37 µM	0.335 µM
COC(=O)c1c(C)ccc2c(O)c3c(cc12)C(=O)c1c2c(cc(O)c1C3=O)C1(C)OC(C)(O2)C(O)C(N(C)C)C1O (stereo not drawn)	3.03 µM	> 100 µM	–	6.42 µM	2.68 µM	2.46 µM	9.27 µM	13.4 µM	–	–
NC(Cc1ccccc1)=NCC(=O)O	> 100 µM	> 100 µM	> 100 µM	> 100 µM	> 100 µM	> 100 µM	> 100 µM	> 100 µM	> 100 µM	–
O=c1[nH]c(=S)c2cc3c(=S)[nH]c(=O)n(CCC(c4ccccc4)(c4ccccc4)c4ccccc4)c3nc2n1CCC(c1ccccc1)(c1ccccc1)c1ccccc1	> 100 µM	–	> 100 µM	> 100 µM	> 100 µM	> 100 µM	> 100 µM	> 100 µM	–	–
OC12C3C4CC5C(C4[C@@H]1Br)C2[C@@](O)(c1c(F)c(F)c(F)c(F)c1F)C53 (stereo partly drawn)	> 100 µM	> 100 µM	61.5 µM	–	> 100 µM	> 100 µM	95.2 µM	> 100 µM	> 100 µM	52.7 µM
CCC(C)NC(=S)N/N=C(\C)c1ccccn1 (stereo not drawn)	> 100 µM	> 100 µM	–	> 28.3 µM	> 100 µM	> 46.8 µM	16.8 µM	> 25.8 µM	> 30.7 µM	–
Cc1c(C)c2c(c(N)c1C#N)C(=O)N(OS(=O)(=O)c1ccccc1)C2=O	–	47.2 µM	43.4 µM	31.8 µM	37.2 µM	64.3 µM	> 100 µM	–	37.7 µM	> 100 µM
N#CC(c1nc2ccccc2s1)c1nc(Cl)ncc1Br (stereo not drawn)	73.9 µM	> 100 µM	–	> 100 µM	> 100 µM	> 100 µM	> 100 µM	> 100 µM	> 100 µM	–
COc1ccc(/C=C2\Sc3nnc(C)n3N=C2c2cc(F)c(Cl)cc2Cl)cc1OC	26.7 µM	> 100 µM	19.5 µM	37.1 µM	32.8 µM	27.8 µM	22.6 µM	33.3 µM	31 µM	–
O=c1[nH]nc(Cc2ccccc2)n1/N=C/c1ccc([N+](=O)[O-])o1	74.8 µM	> 100 µM	> 100 µM	3.21 µM	17.6 µM	42.3 µM	> 100 µM	22 µM	15.7 µM	–
CC(=O)N1CC(C)(C)c2c1cc(C)c(O)c2C	> 100 µM	> 100 µM	> 100 µM	–	> 100 µM	> 100 µM	> 100 µM	> 100 µM	> 100 µM	–
CCOC(=O)c1[nH]cnc1/N=N/N(C)N	> 100 µM	> 100 µM	–	> 100 µM	> 100 µM	> 100 µM	> 100 µM	> 100 µM	> 100 µM	–
Cc1c(NC(=S)N/N=C\C(=N/NC(=S)Nc2c(C)n(C)n(-c3ccccc3)c2=O)c2ccccc2)c(=O)n(-c2ccccc2)n1C	> 100 µM	> 100 µM	–	> 100 µM	> 100 µM	> 100 µM	> 100 µM	> 100 µM	–	> 100 µM
c1nncn1C12C3C4C5C3C1C5C42 (stereo not drawn)	> 100 µM	> 100 µM	> 100 µM	–	> 100 µM	> 100 µM	–	> 100 µM	> 100 µM	> 100 µM
CC(C)=CC(C)C(C(O)CCC1(c2ccoc2)OCCO1)S(=O)(=O)c1ccccc1 (stereo not drawn)	> 100 µM	> 100 µM	–	> 100 µM	> 100 µM	–	> 100 µM	> 100 µM	> 100 µM	–

Reference: PubChem BioAssay (NCI)
